Drawing on ChEMBL document CHEMBL4000246, “Total synthesis and cytotoxicity of Leucetta alkaloids” (Bioorg Med Chem, 2017), this text covers IC50 for 21 compounds.

The structures appear in SMILES notation.

The subject of the test is MCF7. As to the kind of experiment: Cytotoxicity against human MCF7 cells assessed as growth inhibition after 96 hrs by MTT assay. It counts as functional, cell-based.
In the case of `COc1ccc(-c2c3ncn(C)c3cc3cc(OC)c(OC)c(OC)c23)cc1`, the half-maximal inhibitory concentration (IC50) is greater than 100 µM. The result for `COc1ccc(-c2c3cc(OC)c(OC)c(OC)c3cc3c2ncn3C)cc1` reads 68.2 µM; that for `COc1ccc(-c2c3cc(O)c(OC)cc3cc3c2ncn3C)cc1`, 41.1 µM. The result for `CN1C(=O)N=C(Nc2nc(Cc3ccc4c(c3)OCO4)cn2C)C1=O` [CLATHRIDINE] reads greater than 100 µM; that for `COc1ccc(-c2c3[nH]c(=O)n(C)c3cc3cc(OC)c(OC)c(OC)c23)cc1`, 91.9 µM; that for `COc1ccc(Cn2cc(Cc3ccc(OC)c(OC)c3)nc2N)cc1` [ISONAAMINE C], 28 µM. For `COC1=C(OC)C(=O)c2c(cc3c([nH]c(=O)n3C)c2-c2ccc(OC)cc2)C1=O`, the IC50 was determined as 43.8 µM.

With `COC1=C(OC)C(=O)c2c(cc3c(ncn3C)c2-c2ccc(OC)cc2)C1=O`, the half-inhibitory concentration (IC50) was 92 µM.

As for `COc1ccc(Cc2c(C(OC)c3ccc(OC)cc3)nc(N)n2C)cc1` (stereo unspecified), the IC50 was found to be 22.7 µM.

In the case of `COc1ccc(-c2c3cc(O)c(OC)cc3cc3c2[nH]c(=N)n3C)cc1` [KEALIININE A], the IC50 was greater than 100 µM. The result for `COc1ccc(-c2c3cc(OC)c(OC)c(OC)c3cc3c2nc(N)n3C)cc1` reads 4.94 µM. Then `COc1ccc(Cn2cc(Cc3ccc(OC)c(OC)c3)nc2/N=C2/NC(=O)N(C)C2=O)cc1` [ISONAAMIDINE E], with 5.78 µM; and `COc1ccc(-c2c3cc(OC)c(OC)cc3cc3c2nc(N)n3C)cc1`, with 4.4 µM; and `COc1ccc(-c2c3cc(OCc4ccccc4)c(OC)cc3cc3c2ncn3C)cc1`, with 76.9 µM. The result for `COc1ccc(-c2c3nc(N)n(C)c3cc3cc(OC)c(OC)c(OC)c23)cc1` reads 19.5 µM; that for `COc1ccc(Cc2nc(N)n(C)c2Cc2ccc(OC)cc2)cc1`, 28.8 µM. Turning to `Cn1cc(Cc2ccc3c(c2)OCO3)nc1N`, the IC50 turned out to be 23.4 µM. Take `COc1ccc(-c2c3cc(OC)c(OC)cc3cc3c2ncn3C)cc1`: the IC50 came to 99.8 µM. With `COC1=C(OC)C(=O)c2c(cc3c(nc(N)n3C)c2-c2ccc(OC)cc2)C1=O`, the 50% inhibitory concentration (IC50) is greater than 100 µM. With `Cn1cnc(Cc2ccc3c(c2)OCO3)c1`, the IC50 was greater than 100 µM. Consider `COc1ccc(Cc2nc(NC3=NC(=O)N(C)C3=O)n(C)c2Cc2ccc(OC)cc2)cc1`, for which the 50% inhibitory concentration (IC50) stood at 5.08 µM.
